The subject of assay [1] is NC/Jic mice. In words: Spontaneously manifested allergic dermatitis in NC/Jic mice (ointment). The class given is in vivo. As to the method:
Compound No. 130 was well blended with an equivalent mixture of polyethylene glycol 400 and polyethylene glycol 4000 to give an approximately homogeneous product. Thus, an ointment containing the test compound at a rate of 0.1% was prepared. For control groups, an ointment base alone was employed.
Male NC/Jic mice (body weight, 24.1 to 31.9 g; age, 12 to 24 weeks old; supplier, Clea Japan, Inc.) were checked for their health after purchase. Immediately after the health check, the mice were housed under conventional conditions until dermatitis occurred. Mouse heads surrounding auricle portions were observed by eye once daily during the preparatory housing and, after a start in painting with ointments, once daily prior to painting. The severity of spontaneous dermatitis was scored according to a pre-assigned sore table (Table 8) for the observation of dermatitis. Animals seriatim used in the experiment were selected from those showing signs of dermatitis with score 1 or 2 for 3 consecutive days or longer.
The ointment was warmed to about 37°C prior to administration, and open-painted onto diseased sites at 100 mg/dosage/day. Seven weeks were set as a drug application period.

Assay [2] relates to peripheral blood mononuclear cells (PBMC). In words: Antibody (IgG, IgM) production by SAC/IL-2-stimulated peripheral blood mononuclear cells. The class given is cell-based. As to conditions: Homo sapiens, 144 h, 6 days incubation; for inhibition at 0.1 µM: final concentration 0.1 µM; for inhibition at 1 µM: final concentration 1 µM; for inhibition at 10 µM: final concentration 10 µM. The method, then:
Heparinized peripheral blood derived from a healthy person was diluted 2-fold with phosphate buffered saline (PBS) and applied to density-gradient centrifugation using Ficoll-Paque (Pharmacia Biotech) to give peripheral blood mononuclear cells (PBMC). After isolation, PBMC was rinsed with PBS, and suspended in RPMI-1640 medium (K.K. Nikken Seibutsu Igaku Kenkyujo) containing 10% heat-inactivated fetal calf serum (1 × 10^6 cells/mL), followed by addition of 0.05% Staphylococcus aureus Cowan-I (SAC, CALBIOCHEM) and 10 units/mL interleukin-2 (IL-2, Genzyme) for stimulation, as well as by simultaneous addition of Compound No. 130 (final concentration: 0.1, 1 and 10 µM). The mixtures were incubated on a 96-well microtest plate at 37°C for 6 days in an atmosphere of 95% air and 5% CO2. After incubation, supernatants were collected and quantitatively measured for IgG and IgM levels by an enzyme immunoassay (a sandwich immunoassay method using two antibodies).
IgG assay: A preparation containing 40 µg/mL anti-human IgG antibody (F(ab')2, Cappel) in 50 mM sodium carbonate-sodium bicarbonate buffer (pH 9.6) was added to each well of a 96-well microtest plate (Nunc) at a rate of 100 µL/well. The plates were allowed to stand overnight at 4°C, and then rinsed 3 times with PBS containing 0.05% Tween 20. A 4-fold dilution of BlockAce (Snow Brand Milk Products Co., Ltd.) in PBS was added to the 96-well microtest plates (300 µL/well) which were then allowed to stand overnight at 4°C, followed by rinsing similarly. Next, a culture supernatant was serially diluted with a 4-fold dilution of BlockAce in PBS and a series of dilutions were added at a rate of 100 µL/well to the 96-well microtest plates which were then allowed to stand at 25°C for 1 hour, followed by rinsing similarly. Thereafter, a 2500-fold dilution of peroxidase-labeled mouse anti-human IgG antibody (Zymed) was added at a rate of 100 µL/well to the 96-well microtest plates which were then allowed to stand at 25°C for 1 hour, followed by rinsing similarly. A coloring kit for peroxidase (Sumitomo Bakelite) was added at a rate of 100 µL/well to each well which was subjected to an enzyme reaction for 15 to 30 minutes at room temperature, followed by addition of 1 N hydrochloric acid at a rate of 100 µL/well. The resultant colored product was measured for an optical density (OD) at 450 nm for a test wavelength and at 650 nm for a reference wavelength in a microplate reader. IgG levels are calculated using a calibration curve of a standard IgG.
IgM assay: The procedures for the IgG assay as aforementioned were repeated except that the anti-human IgG antibody (F(ab')2) was replaced to anti-human IgM antibody (F(ab')2, Cappel) and the peroxidase-labeled mouse anti-human IgG antibody also to peroxidase-labeled mouse anti-human IgM antibody (Zymed; 2,000-fold dilution). IgM levels are obtained in the same manner as for the IgG assay.

Setting [3] is: read-out: IgG production of PBMC, percent inhibition.
Setting [4] is: read-out: IgM production of PBMC, percent inhibition.

Where “and” joins values, the source holds several entries; their conditions need not be identical. Identical values can stand only once. Like-named read-outs stand apart in the source and are kept apart here.

As for `CNC(=O)[C@H](Cc1ccc(NC(=N)N)cc1)NC(=O)[C@H](CC(C)C)C(CCCc1ccccc1)C(=O)NO` (single isomer, unassigned) [Compound No. 130, N-[4-(N-Hydroxyamino)-2(R)-isobutyl-3(R or S)-(3-phenyltrimethylene)succinyl)-L-4'-guanidophenylalanine-N-methylamide 1 acetate], in assay [1] (0.1 % ointment, 100 mg/dosage/day for seven weeks, score (0-4) on Day 49, 3 animals, ointment base 3.7 ± 0.6), the “Dermatitis Score (Average ± S. D.*)” value was determined as 2.3 ± 1.5. Besides, the “scratching actions (individual animals)” value in assay [1] (0.1% ointment, counted for 30 minutes before painting, Days 47 to 48, ointment base 126, 138, 206) was 19 scratching actions and 81 scratching actions and 177 scratching actions. Besides, in assay [1] (0.1% ointment, counted for 30 minutes before painting, Days 47 to 48, ointment base average 157), the “scratching actions (average)” value is 92 scratching actions. In assay [2] (setting [3]), the inhibition at 0.1 µM was 84.5%, the inhibition at 1 µM amounted to 96.1% and the inhibition at 10 µM came out at 96%. For the same compound, in assay [2] (setting [4]), the inhibition at 0.1 µM turned out to be 32.9%, the inhibition at 1 µM was determined as 68.1% and the inhibition at 10 µM is 63.4%.

One may read the inhibition as the share of the control response that was lost under treatment.

For the origin of these results see patent EP1101492A1, “NOVEL REMEDIES FOR ALLERGIC DISEASES” (FUJI YAKUHIN KOGYO KABUSHIKI KAISHA, priority 1998, dated 2000).
